These are literature values, as cited in patent US20100330607A1, “PHOTOSWITCH-ENABLED ION CHANNEL ASSAY SYSTEM” (Photoswitch Biosciences, Inc., priority 2009, published 2010).

Read-outs that look alike come from different tables or passages of the source.

The conditions of data set [1]: read-out: Kd for Ca^2+.
Data set [2] deals with late INa. The conditions noted are these: ventricular myocytes from dog hearts.
For data set [3], the system named is late INa. To be noted: ventricular myocytes from guinea-pig hearts.
For data set [4] the following is noted: in the dark, in solution.

With `Cc1ccc(N(CC(=O)O)CC(=O)O)c(OCCOc2cc(-c3c4cc(Cl)c(=O)cc-4oc4cc(O)c(Cl)cc34)ccc2N(CC(=O)O)CC(=O)O)c1` [Fluo-3], the Kd in data set [1] is 390 nM.

Regarding `COc1ccccc1OCC(O)CN1CCN(CC(=O)Nc2c(C)cccc2C)CC1` (centres unmarked) [ranolazine], the “inhibition of the late INa” value in the data set on late INa [2] was “concentration-, voltage- and frequency-dependent inhibition”; with late INa [3], “concentration-, voltage- and frequency-dependent inhibition”.

Fluo-4: in data set [1], the Kd was 345 nM.

Turning to Maleimide-Azobenzene-Glutamate [MAG], the “rate of thermal relaxation, from cis to trans” value in data set [4] was “about 18 mins”.

As a reminder, the Kd is a measure of binding affinity in units of concentration.
